The test system of assay [1] is HCT-116. The assay can be described thus: Cytotoxicity against human HCT116 cells after 72 hrs by sulforhodamine B assay. The assay is classed as functional, cell-based. (Sulforhodamine B stains cellular protein and so reports cell mass.)
Assay [2] has as its system K562. The assay can be described thus: Cytotoxicity against human K562 cells after 72 hrs by sulforhodamine B assay. It counts as functional, cell-based.
For assay [3], the system named is MDA-MB-231. Nature of the assay: Cytotoxicity against human MDA-MB-231 cells after 72 hrs by sulforhodamine B assay. The assay is classed as functional, cell-based.
The test system of assay [4] is SK-HEP1. The assay can be described thus: Cytotoxicity against human SKHEP1 cells after 72 hrs by sulforhodamine B assay. The assay is classed as functional, cell-based.
Assay [5] relates to SNU-638. Nature of the assay: Cytotoxicity against human SNU638 cells after 72 hrs by sulforhodamine B assay. The assay is classed as functional, cell-based.
Assay [6] addresses Sodium/potassium-transporting ATPase. Nature of the assay: Inhibition of potassium-activated sodium/potassium ATPase in human placenta using 3-O-methylfluorescein phosphate as substrate measured for 90 secs by fluorescence assay.
The nature of assay [7]: Inhibition of recombinant bacterial sortase A using Dabcyl-QALPETGEE-Edans as substrate measured after 1 hr by fluorescence assay. The arrangement: species or system Bacteria.
For assay [8], the system named is Staphylococcus aureus. Nature of the assay: Antibacterial activity against Staphylococcus aureus ATCC 6538P measured after 24 hrs. The assay is classed as functional.
Assay [9] concerns Bacillus spizizenii. Nature of the assay: Antibacterial activity against Bacillus subtilis ATCC 6633 measured after 24 hrs. It counts as functional. The following applies: ATCC 6633, 24 h.
Assay [10] deals with Micrococcus luteus. Nature of the assay: Antibacterial activity against Micrococcus luteus IFC 12708 measured after 24 hrs. The assay is classed as functional. The following applies: IFC 12708, 24 h.
Assay [11] relates to Proteus vulgaris. Nature of the assay: Antibacterial activity against Proteus vulgaris ATCC 3851 measured after 24 hrs. It counts as functional. The following applies: ATCC 3851, 24 h.
Assay [12] concerns Salmonella typhimurium. The assay can be described thus: Antibacterial activity against Salmonella typhimurium ATCC 14028 measured after 24 hrs. The assay is classed as functional, Salmonella enterica subsp. enterica serovar Typhimurium. The following applies: Salmonella enterica, ATCC 14028, 24 h.
Assay [13] deals with Escherichia coli. Nature of the assay: Antibacterial activity against Escherichia coli ATCC 25922 measured after 24 hrs. The assay is classed as functional. The following applies: ATCC 25922, 24 h.
Assay [14] relates to Candida albicans. Nature of the assay: Antifungal activity against Candida albicans ATCC 10231 measured after 48 to 72 hrs. The assay is classed as functional.
For assay [15], the system named is Aspergillus fumigatus. The assay can be described thus: Antifungal activity against Aspergillus fumigatus HIC 6094 measured after 48 to 72 hrs. It counts as functional.
For assay [16], the system named is Trichophyton rubrum. Nature of the assay: Antifungal activity against Trichophyton rubrum IFO 9185 measured after 48 to 72 hrs. It counts as functional.
Assay [17] deals with Trichophyton mentagrophytes. The assay can be described thus: Antifungal activity against Trichophyton mentagrophytes IFO 40996 measured after 48 to 72 hrs. The assay is classed as functional.
Assay [18] relates to A549. Nature of the assay: cells. The following applies: Homo sapiens, A549, 72 h.
Description: (§1) Cytotoxicity against human A549 cells after 72 hrs by sulforhodamine B assay
Assay [19] has as its system A549.
Description: as §1

Where a SMILES comes first, the peptide text is derived from it.

Regarding `CC[C@H](C)[C@@H]1NC(=O)[C@@H]2CCCN2C(=O)[C@@H]2CCCN2C(=O)[C@H](C(C)C)NC(=O)[C@H](Cc2ccc(O)cc2)NC(=O)[C@@H]2CCCN2C(=O)[C@@H]2CCCN2C(=O)[C@H](CC(C)C)NC(=O)[C@H](C(C)C)NC(=O)[C@H](Cc2ccccc2)NC1=O` (HELM PEPTIDE1{F.V.L.P.P.Y.V.P.P.I}$PEPTIDE1,PEPTIDE1,1:R1-10:R2$$$V2.0), the IC50 (commonly the concentration needed to halve the response being measured) was 1000 nM in assay [1] (Homo sapiens, HCT-116, 72 h); 1100 nM in assay [2] (Homo sapiens, K562, 72 h); 8600 nM in assay [3] (Homo sapiens, MDA-MB-231, 72 h); 12000 nM in [4] (Homo sapiens, SK-HEP1, 72 h); 2200 nM in assay [5] (Homo sapiens, SNU-638, 72 h); over 100000 nM in assay [6]. The values for the IC50 in assay [7] and in assay [18] were over 100000 nM and 1400 nM, respectively. Further, the MIC in assay [8], in assay [9], in [10], in assay [11], in assay [12] and in assay [13] was over 128 µM in each case. Also, the MIC in [14], in assay [15], in assay [16] and in assay [17] was over 128 µM in each case.
Turning to `CC(C)C[C@@H]1NC(=O)[C@H](CO)NC(=O)[C@@H]2CCCN2C(=O)[C@H](Cc2ccc(O)cc2)NC(=O)[C@H](Cc2ccc(O)cc2)NC(=O)[C@@H]2CCCN2C(=O)[C@H](Cc2ccc(O)cc2)NC1=O` (HELM PEPTIDE1{L.Y.P.Y.Y.P.S}$PEPTIDE1,PEPTIDE1,1:R1-7:R2$$$V2.0), the IC50 in assay [1] (Homo sapiens, HCT-116, 72 h) is over 50000 nM; in assay [2] (Homo sapiens, K562, 72 h), over 50000 nM; in assay [3] (Homo sapiens, MDA-MB-231, 72 h) it was over 50000 nM; in assay [4] (Homo sapiens, SK-HEP1, 72 h), over 50000 nM; in [5] (Homo sapiens, SNU-638, 72 h) it was over 50000 nM; in [6], over 100000 nM. The results for the IC50 in [7] and in [18] were over 100000 nM and over 50000 nM, respectively. Further, the MIC in assay [8], in assay [9], in [10], in assay [11], in assay [12] and in assay [13] was over 128 µM throughout. Also, the MIC in assay [14], in [15], in [16] and in assay [17] was over 128 µM in each case.
For `CC[C@H](C)[C@@H]1NC(=O)[C@H](Cc2ccc(O)cc2)NC(=O)[C@@H]2CCCN2C(=O)[C@@H]2CCCN2C(=O)[C@H](CC(C)C)NC(=O)[C@H](CCC(=O)O)NC(=O)[C@H](Cc2ccccc2)NC(=O)[C@H](CC[S+](C)[O-])NC(=O)[C@@H]2CCCN2C(=O)[C@@H]2CCCN2C1=O` (single isomer, unassigned; Epimer-1), the IC50 was 140 nM in assay [1] (hct-116); 170 nM in assay [2] (k562); 400 nM in [3] (mda-mb-231); 41 nM in assay [4] (sk-hep1); 160 nM in [5] (snu-638); over 100000 nM in assay [6]. For the same compound, the IC50 in assay [7] was over 100000 nM; in assay [19], 190 nM. Besides, the MIC in assay [8], in assay [9], in assay [10], in assay [11], in [12] and in [13] was over 128 µM each time. Moreover, the MIC in assay [14], in assay [15], in assay [16] and in [17] was over 128 µM throughout.
For the compound `CC[C@H](C)[C@@H]1NC(=O)[C@H](Cc2ccc(O)cc2)NC(=O)[C@@H]2CCCN2C(=O)[C@@H]2CCCN2C(=O)[C@H](CC(C)C)NC(=O)[C@H](CCC(=O)O)NC(=O)[C@H](Cc2ccccc2)NC(=O)[C@H](CC[S+](C)[O-])NC(=O)[C@@H]2CCCN2C(=O)[C@@H]2CCCN2C1=O` (single isomer, unassigned; epimer 2), the IC50 in [1] (hct-116) came to 11 nM; in [2] (k562), 21 nM; in assay [3] (Homo sapiens, MDA-MB-231, 72 h), 350 nM; in assay [4] (sk-hep1), 14 nM; in [5] (snu-638), 10 nM; in assay [19], 23 nM.
As for `C[C@@H]1NC(=O)[C@H]([C@@H](C)O)NC(=O)[C@H](Cc2ccc(O)cc2)NC(=O)[C@@H]2CCCN2C(=O)[C@H](Cc2ccc(O)cc2)NC(=O)[C@H](CCCNC(=N)N)NC(=O)[C@@H]2CCCN2C(=O)[C@H](CC(N)=O)NC1=O` [CYCLONELLIN] (HELM PEPTIDE1{A.N.P.R.Y.P.Y.T}$PEPTIDE1,PEPTIDE1,1:R1-8:R2$$$V2.0), the IC50 in [1] (Homo sapiens, HCT-116, 72 h) was over 50000 nM; in assay [2] (Homo sapiens, K562, 72 h) it was over 50000 nM; in assay [3] (Homo sapiens, MDA-MB-231, 72 h) it was over 50000 nM; in assay [4] (Homo sapiens, SK-HEP1, 72 h), over 50000 nM; in assay [5] (Homo sapiens, SNU-638, 72 h), over 50000 nM; in assay [6] it was over 100000 nM. Besides, the IC50 is over 100000 nM in [7] and over 50000 nM in assay [18]. Further, the MIC in [8], in [9], in [10], in [11], in assay [12] and in assay [13] was over 128 µM each time. Besides, the MIC in assay [14], in assay [15], in assay [16] and in [17] was over 128 µM in each case.
With `CC[C@H](C)[C@@H]1NC(=O)[C@H](Cc2ccccc2)NC(=O)[C@@H]2CCCN2C(=O)[C@H](Cc2ccccc2)NC(=O)[C@@H]2CCCN2C(=O)[C@H](CCC(N)=O)NC(=O)[C@@H]2CCCN2C(=O)[C@H](Cc2ccccc2)NC1=O` [PHAKELLI STATIN 11] (HELM PEPTIDE1{F.I.F.P.Q.P.F.P}$PEPTIDE1,PEPTIDE1,1:R1-8:R2$$$V2.0), the IC50 in assay [1] (Homo sapiens, HCT-116, 72 h) was 1600 nM; in assay [2] (Homo sapiens, K562, 72 h), 5600 nM; in assay [3] (Homo sapiens, MDA-MB-231, 72 h), 3200 nM; in assay [4] (Homo sapiens, SK-HEP1, 72 h), 1700 nM; in assay [5] (Homo sapiens, SNU-638, 72 h), 6900 nM; in assay [6], over 100000 nM. Besides, the IC50 is over 100000 nM in [7] and 2800 nM in assay [18]. In addition, the MIC in assay [8], in [9], in assay [10], in assay [11], in assay [12] and in assay [13] was over 128 µM in each case. Moreover, the MIC in assay [14], in [15], in assay [16] and in [17] was over 128 µM each time.
As to `CC[C@H](C)[C@@H]1NC(=O)[C@@H]2CCCN2C(=O)[C@H](Cc2ccccc2)NC(=O)[C@@H]2CCCN2C(=O)[C@H](Cc2ccc(O)cc2)NC(=O)[C@@H]2CCCN2C(=O)[C@H]([C@@H](C)CC)NC1=O` [PHAKELLISTATIN 2] (HELM PEPTIDE1{F.P.I.I.P.Y.P}$PEPTIDE1,PEPTIDE1,1:R1-7:R2$$$V2.0), the IC50 in assay [1] (Homo sapiens, HCT-116, 72 h) is 710 nM; in assay [2] (Homo sapiens, K562, 72 h) it was 3200 nM; in assay [3] (Homo sapiens, MDA-MB-231, 72 h) it was 1300 nM; in assay [4] (Homo sapiens, SK-HEP1, 72 h), 770 nM; in assay [5] (Homo sapiens, SNU-638, 72 h), 1600 nM; in assay [6] it was over 100000 nM. Also, the IC50 was over 100000 nM in [7] and 660 nM in assay [18]. The MIC in assay [8], in [9], in assay [10], in [11], in assay [12] and in assay [13] was over 128 µM each time. Besides, the MIC in assay [14], in [15], in [16] and in [17] was over 128 µM in each case.

The values above are taken from ChEMBL document CHEMBL4145614, “Cyclopeptides from the Sponge Stylissa flabelliformis” (J Nat Prod, 2018).
